{
  "source": "patent US10722467B2",
  "about": "“Remote loading of sparingly water-soluble drugs into liposomes” (ZONEONE PHARMA, INC., priority 2013, dated 2020)",
  "assay_type_in_all_cases": "physicochemical",
  "key": {"[1]": {"test": "Remote loading of aripiprazole into liposomes", "description": "Liposomes (HSPC/Chol/PEG-DSPE 3/2/0.15 mol/mol/mol) containing 250 mM ammonium sulfate or 250 mM sodium sulfate were diluted in 1 mL of 50 mM citric acid, 10% (wt/wt) sucrose, pH 4.0 to a concentration of 6 mM phospholipid. 0.3 mg of aripiprazole was added from a stock solution of 15 mg/mL in DMSO, so that the final DMSO concentration was 2% (v/v). Fine precipitates were immediately observed after the drug was added to both liposome samples. The samples were heated at 65° C. for 30 min, the cooled on ice. The samples were filtered through a 0.2 um polyethersulfone syringe filter to remove any drug precipitates, followed by purification on a Sephadex G25 column equilibrated with HBS, pH 6.5 to remove any soluble extraliposome drug. The turbid fraction was collected and analyzed for lipid and drug as described above."}, "[2]": {"test": "Aripiprazole precipitates from various solvents with liposomes, absorbance at 600 nm", "settings": "drug initially dissolved in DMSO, 1-4-methylpyrrolidone, diethylenemonoethylether or polyethyleneglycol (MW400); 7.5% solvent; ammonium sulfate liposomes; 65°C 30 min", "description": "Aripiprazole was dissolved in a range of solvents indicated below at 4 mg/mL. Liposomes composed of HSPC/Chol/PEG-DSPE (3/2/0.15 mol/mol/mol) that were prepared in 250 mM ammonium sulfate were used and diluted to 6 mM in Hepes buffered sucrose 10% (wt/wt) (HBSuc pH 6.5). 0.3 mg of drug was introduced by slow addition of each solvent while vortexing. The final solvent concentration was 7.5% for all samples. As controls, the drug was added from each solvent to the same volume of HBSuc pH 6.5 without the liposomes. The samples were heated at 65° C. for 30 min then cooled on ice."}, "[3]": {"test": "Carfilzomib solubility as a function of DMSO content (optical density at 600 nm)", "settings": "drug 0.2 mg/mL", "description": "Carfilzomib was added from a stock 10 mg/mL solution in DMSO to 1 mL of a citric acid/DMSO mixture so that the composition of DMSO was 2%, 25%, 50%, 75% and 100%. The final drug concentration was 0.2 mg/mL. The solutions were prepared and measured for optical density at 600 nm. The optical density at 600 nm is a good measure of how turbid or how much scattering material (such as drug precipitates) are in a solution, generally, the more precipitates the higher the absorbance. From FIG. 8 is apparent that at DMSO concentrations below 50% vol/vol (25° C.) and 25% vol/vol (65° C.) the drug remains in a precipitated form. Only when the concentration of DMSO is increased does it become effectively solubilized at this concentration of 0.2 mg/mL."}, "[4]": {"test": "Remote loading of carfilzomib into liposomes (drug/lipid ratio and loading efficiency by HPLC)", "settings": "for efficiency of loading: 100 g drug/mol HSPC", "description": "Ammonium sulfate solution was prepared by dissolving ammonium sulfate solid to a final concentration of 250 mM (500 mequivilents of anion/L) no pH adjustment was made to yield a final pH of 5.6. Sodium sulfate solution (250 mM) was prepared by adding 0.35 g sodium sulfate to 10 mL deionized water.\nThe liposomes were formed by extrusion. Lipids were dissolved in ethanol at a concentration of 500 mM HSPC (591 mg/mL total lipid) at 65° C. and the 9 volumes of the trapping agent solution heated to 65° C. was added to the ethanol/lipid solution also at 65° C. The mixture was vortexed and transferred to a 10 mL thermostatically controlled (65° C.) Lipex Extruder. The liposomes were formed by extruding 10 times through polycarbonate membranes having 0.1 um pores. After extrusion the liposomes were cooled on ice. The transmembrane electrochemical gradient was formed by purification of the liposomes by dialysis in dialysis tubing having a molecular weight cut off of 12,000-14,000. The samples are dialyzed against 5 mM HEPES, 10% sucrose pH 6.5 (stirring at 4° C.) at volume that is 100 fold greater than the sample volume. The dialysate was changed after 2 h then 4 more times after 12 h each. The conductivity of the liposome solution was measured and was indistinguishable from the dialysis medium ˜40 μS/cm.\n(§1) The lipid concentration is determined by measuring the cholesterol by HPLC using an Agilent 1100 HPLC with and Agilent Zorbax 5 um, […], Eclipse XDB-C8 column and a mobile phase of A=0.1% TFA, B=0.1% TFA/MeOH with an isocratic elution of 99% B. The flow rate is 1.0 mL/min, column temperature is 50° C., 10 μL injection and detection by absorbance at 205 nm. The retention time of cholesterol is 4.5 min. The liposome size is measured by dynamic light scattering.\nCarfilzomib (Selleck Chemicals) was dissolved in DMSO at a concentration of 10 mg/mL. […] The liposomes were diluted with 50 mM citrate, 10% sucrose pH 4.0 to increase the volume to a point where after addition of the drug the final DMSO concentration is 2%. The carfilzomib/DMSO was added to the diluted liposomes, which were mixed at room temperature then transferred to a 65° C. bath and swirled every 30 s for the first 3 min and then swirled every 5 min over a total heating time of 30 min. All samples were very cloudy when the drug was added and all became clear (same as liposomes with no drug added) after 15 min. After heating for 30 min all samples were placed on ice for 15 min. The loaded liposomes were vortexed and 100 μL of sample was kept as the “before column” and the rest transferred to microcentrifuge tubes and spun at 10,000 RPM for 5 min. The supernatants were purified on a Sephadex G25 column collected and analyzed by HPLC. The HPLC analysis of carfilzomib was performed on the same system as described for analysis of cholesterol. The mobile phase consists of A=0.1% TFA, B=0.1% TFA/MeOH with a gradient elution starting at 50% B and increasing to 83% B in 13 min with 7 min equilibration back to 50% B. The flow rate is 1.0 mL/min, column temperature is 30 C, 10 μl injection and detection by absorbance at 205 nm. The retention time of carfilzomib is 12.2 min. The lipid concentration is determined by analysis of the cholesterol by HPLC. […]\nNapthelenedisulfonic acid (NDS) was dissolved in water and titrated with diethylamine to a final pH of 8.0 and concentration of 250 mM (500 mequivilents of anion/L). […]\nTo ensure complete removal of the DMSO added with carfilzomib, the liposomal carfilzomib samples were dialyzed in dialysis tubing having a molecular weight cut off of 12,000-14,000. The samples are dialyzed against 5 mM HEPES, 10% sucrose pH 6.5 (stirring at 4° C.) at volume that is 100 fold greater than the sample volume. The dialysate was changed after 2 h then 2 more times after 12 h each. The carfilzomib liposomes were again analyzed for drug and lipid concentration as described above. […]"}, "[5]": {"test": "Reverse gradient-directed drug release from liposomes", "description": "Liposomes were loaded with carfilzomib as described in Example 1 and were purified into deionized water. The sample was divided into two aliquots. To the first aliquot, concentrated Hepes pH 7.4 and NaCl was added so that the final concentration was 5 mM Hepes, 145 mM NaCl (HBS). To the second aliquot, concentrated ammonium sulfate was added so that the final concentration was 250 mM. No obvious physical changes were initially observed. The samples were then heated at 65° C. for 30 min. The samples were transferred to clean eppendorf tubes and centrifuged for 10,000 rpm for 5 min after which the supernatants and precipitates were separated and tested for carfilzomib content by HPLC assay. Released drug precipitated, liposome encapsulated drug remained in the supernatant. The % carfilzomib released was calculated by […]"}, "[6]": {"test": "Liposome size by dynamic light scattering", "settings": "carfilzomib-loaded liposomes, before lyophilizing", "description": "as §1\nSee Example 1, Carfilzomib liposome entrapment by remote loading for details on how the liposomes were made, purified and characterized."}, "[7]": {"test": "Light scattering at 600 nm during carfilzomib loading", "description": "Liposomes containing 250 mM ammonium sulfate as trapping agent and 250 mM sodium sulfate as control liposomes which would not remote load drug. The liposomes were prepared and loaded using the procedure described in Example 1 except a disposable polystyrene cuvette was used as the reaction vessel. The scattering of light at 600 nm was measured with a UV/vis spectrophotometer during the loading process."}, "[8]": {"settings": "500 mM ammonium sulfate liposomes, highest input ratio of Example 10"}, "[9]": {"settings": "[(NH4)2SO4] 250 mM, input drug/HSPC 167.3 g/mol"}},
  "data": [
    {"smiles": "O=C1CCc2ccc(OCCCCN3CCN(c4cccc(Cl)c4Cl)CC3)cc2N1", "note": "[aripiprazole]", "values": [
      {"measurement": "loading efficiency", "setting": "[1]; drug introduced as SBCD complex (from the pharmaceutical product Abilify), same concentration and loading conditions", "value": 68, "unit": "%"},
      {"measurement": "Fold Increase NH4SO4/NaSO4", "setting": "[1]; loading into ammonium sulfate vs sodium sulfate liposomes", "value": 49.3, "unit": "fold"},
      {"measurement": "clarification of drug precipitate with liposomes (absorbance at 600 nm)", "setting": "[2]", "value": "clarified the drug precipitate"}
    ]},
    {"smiles": "CC(C)C[C@H](NC(=O)[C@H](CCc1ccccc1)NC(=O)CN1CCOCC1)C(=O)N[C@@H](Cc1ccccc1)C(=O)N[C@@H](CC(C)C)C(=O)[C@@]1(C)CO1", "note": "[carfilzomib]", "values": [
      {"measurement": "DMSO concentration below which the drug remains in a precipitated form", "setting": "[3]; 25°C", "value": "below 50 % vol/vol"},
      {"measurement": "DMSO concentration below which the drug remains in a precipitated form", "setting": "[3]; 65°C", "value": "< 25", "unit": "% vol/vol"},
      {"measurement": "DMSO required to completely dissolve the drug", "setting": "[3]; 65°C, citric acid/DMSO mixture", "value": "> 25", "unit": "% vol/vol"},
      {"measurement": "drug/carrier total lipid weight ratio (highest reached)", "setting": "[4]; [8]", "value": 0.4},
      {"measurement": "final drug payload (highest reached)", "setting": "[4]; [8]", "value": "469±4.9", "unit": "g drug/mol HSPC"},
      {"measurement": "final drug to lipid ratio", "setting": "[4]; 500 mM ammonium sulfate, input 639 g drug/mol HSPC", "value": "440±10.2", "unit": "g drug/mol HSPC"},
      {"measurement": "remote loading", "setting": "[4]; DMSO absent", "value": "practically no loading"},
      {"measurement": "Drug payload/carrier weight ratio", "setting": "[4]; [(NH4)2SO4] 250 mM, input drug/HSPC 91.8 g/mol", "value": 0.07, "unit": "g drug/g total lipid"},
      {"measurement": "Drug payload/carrier weight ratio", "setting": "[4]; [9]", "value": 0.11, "unit": "g drug/g total lipid"},
      {"measurement": "efficiency", "setting": "[4]; [9]", "value": 76.0, "unit": "%"},
      {"measurement": "Drug payload/carrier weight ratio", "setting": "[4]; [(NH4)2SO4] 250 mM, input drug/HSPC 251.8 g/mol", "value": 0.15, "unit": "g drug/g total lipid"},
      {"measurement": "Drug payload/carrier weight ratio", "setting": "[4]; [(NH4)2SO4] 250 mM, input drug/HSPC 338.1 g/mol", "value": 0.18, "unit": "g drug/g total lipid"},
      {"measurement": "Drug payload/carrier weight ratio", "setting": "[4]; [(NH4)2SO4] 250 mM, input drug/HSPC 432.8 g/mol", "value": 0.20, "unit": "g drug/g total lipid"},
      {"measurement": "Drug payload/carrier weight ratio", "setting": "[4]; [(NH4)2SO4] 500 mM, input drug/HSPC 450.6 g/mol", "value": 0.29, "unit": "g drug/g total lipid"},
      {"measurement": "Drug payload/carrier weight ratio", "setting": "[4]; [(NH4)2SO4] 500 mM, input drug/HSPC 545.9 g/mol", "value": 0.32, "unit": "g drug/g total lipid"},
      {"measurement": "Drug payload/carrier weight ratio", "setting": "[4]; [(NH4)2SO4] 500 mM, input drug/HSPC 639.2 g/mol", "value": 0.37, "unit": "g drug/g total lipid"},
      {"measurement": "Drug payload/carrier weight ratio", "setting": "[4]; [(NH4)2SO4] 500 mM, input drug/HSPC 758.7 g/mol", "value": 0.40, "unit": "g drug/g total lipid"},
      {"measurement": "efficiency of loading", "setting": "[4]; drug from 10 mg/mL DMSO solution added in 5 increments over 1 min while vortexing", "value": "96.3%±1.09%"},
      {"measurement": "efficiency of loading", "setting": "[4]; drug from 10 mg/mL DMSO solution added quickly, 2% DMSO", "value": "97.0%±2.38%"},
      {"measurement": "loading capacity, remote loaded (ammonium sulfate) vs sodium sulfate liposomes", "setting": "[4]; drug input below/at 100 g drug/mol HSPC", "value": "> 3", "unit": "fold"},
      {"measurement": "effect of time between precipitate formation and loading on loading efficiency", "setting": "[4]; liposomes added immediately, after 1 h or 12 h delay", "value": "does not have a significant impact"},
      {"measurement": "degradation of released drug by HPLC chromatogram", "setting": "[5]; after loading and release from liposomes, compared with starting material", "value": "no degradation of carfilzomib had taken place"},
      {"measurement": "drug released with reverse gradient vs control with no reverse gradient", "setting": "[5]; ammonium sulfate vs Hepes buffered saline", "value": 6.5, "unit": "fold"},
      {"measurement": "PDI", "setting": "[6]; trapping agent (NH4)2SO4, drug added quickly", "value": 0.062},
      {"measurement": "PDI", "setting": "[6]; trapping agent (NH4)2SO4, drug added slowly", "value": 0.035},
      {"measurement": "PDI", "setting": "[6]; trapping agent mellitic acid", "value": 0.08},
      {"measurement": "PDI", "setting": "[6]; trapping agent napthelenedisulfonic acid", "value": 0.039},
      {"measurement": "time to clarification of the solution", "setting": "[7]; 250 mM ammonium sulfate liposomes, light scattering at 600 nm during loading", "value": "≤ 15", "unit": "min"},
      {"measurement": "clarification of the precipitate during loading", "setting": "[7]; 250 mM sodium sulfate control liposomes, light scattering at 600 nm", "value": "do not show any clarification of the precipitate"}
    ]}
  ]
}
